Where two headings read alike, the source gives them in different places.
What was measured:
PC3 cells = experiment: PC3 growth inhibition (Cell-titer glo, 72 hours); type: cell-based; conditions: for viability at 1.667 µM: Homo sapiens, PC-3, 72 h, read-out: Percent Viability, PC3 cells, compound concentration 1.667 μM, 72 hours
Procedure: The invention also provides compounds that inhibit cell growth. The ability of a compound of the invention to inhibit the growth of cells can be measured using a variety of methods known in the art. For example, the ability of a compound of the invention to inhibit the growth of PC3 cells can be measured. PC3 cells can be plated and incubated overnight under CO2. For each measurement, a compound of the invention (or vehicle e.g., DMSO) can be diluted with AIM serum free medium and added to the cell plate. The cell plate can then be incubated for 72 h under CO2. Cell-titer glo solution can be added and the plates can be incubated protected from light and the amount of luminescences can be measured. Concentration response curves can be generated by calculating the luminescence increase in test compound treated samples relative to DMSO-treated controls. Percentage remaining viability values at a single concentration can be measured. Growth inhibition (GI50) or cell viability (LD50) values can be determined from thoses curves. In one embodiment, compounds of the invention have a percent viability in PC3 line @ 1.667 uM of <1%. In one embodiment, compounds of the invention have a percent viability in PC3 line @ 1.667 uM of <2%. In one embodiment, compounds of the invention have a percent viability in PC3 line @ 1.667 uM of <3%. In one embodiment, compounds of the invention have a percent viability in PC3 line @ 1.667 uM of <4%. In one embodiment, compounds of the invention have a percent viability in PC3 line @ 1.667 uM of <5%. In one embodiment, compounds of the invention have a percent viability in PC3 line @ 1.667 uM of <10%. In one embodiment, compounds of the invention have a percent viability in PC3 line @ 1.667 uM of <50%.
To measure PC3 growth inhibition, PC3 cells that were maintained in RPMI1640 growth medium (Life Technologies; Cat. No. 11875) at 37° C. under 5% CO2 are trypsinized and diluted at a density of 8×10^4 cells/ml, 25 ul per well of cells and plated in 384-well black tissue culture plate. The cells are incubated overnight at 37° C. under 5% CO2. For each measurement, a test compound or vehicle DMSO control is diluted with AIM serum free medium and added to the cell plate. The cell plate is incubated for 72 hours at 37° C. under 5% CO2. 25 μl Cell-titer glo solution (Promega; Cat. No. G8462) is added and the cell plates are incubated for 10 minutes protected from light. The luminescence is measured. Concentration response curves are generated by calculating the luminescence increase in test compound-treated samples relative to DMSO-treated controls. Percentage remaining viability values at a single concentration, growth inhibition (GI50) or cell viability (LD50) values are determined from those curves. One skilled in the art will appreciate that these values are subject to experimental variation.

hNAMPT protein = hNAMPT protein (Homo sapiens (Human), UniProt P43490); experiment: NAMPT enzyme assay (TR-FRET/HTRF with BodiPY ligand); type: binding; conditions: for inhibition at 1 µM: read-out: Percent Inhibition; for IC50: NAMPT inhibition, IC50 range class
Source text: As discussed above, the invention provides compounds that are useful as inhibitors of the enzyme NAMPT. The NAMPT inhibition of a compound of the invention can be measured using a variety of methods known in the art. For example, the ability of a compound of the invention to inhibit NAMPT enzyme activity can be measured using a homogeneous time resolved fluorescence (HTRF) assay using hNAMPT protein and anti 6His-Tb in buffer treated with a compound of the invention (or control e.g., DMSO) and BodiPY ligand. The TR-FRET signal can be measured using a high throughput microplate reader (e.g., Pherastar). Excitation can be carried out at 320 nm. The percent inhibition value at a single concentration of compound of the invention can be calculated relative to a control treated sample. A concentration response curve can be generated for each compound of the invention and the curve fitted to generate an IC50 value. […] To measure the inhibition of NAMPT activity hNAMPT protein stock and anti 6His-Tb (Cisbio; Cat. No. […]TLB) is diluted to 3× final concentration with assay buffer (50 mM Tris-HCl (pH 7.5), 1 mM DTT, 100 mM NaCl, 10 mM MgCl2, 0.005% Tween 20). To this solution is added a test compound or vehicle control (DMSO) and BodiPY ligand (structure below). The plate is shaken for 1-2 min sealed and incubated for 1 h at rt in the dark. The TR-FRET signal is measured using BMG Pherastar (Lanthascreen protocol on BMG Pherastar). Excitation was carried out at 320 nm, and the ratio of emission of BodiPY (520 nm) to terbium (486 nm) was determined. Concentration response curves are generated by calculating the excitation increase in test compound-treated samples relative to DMSO-treated controls. For the assay method described above, test compound percent inhibition values at a single concentration are calculated relative to control (DMSO) treated samples. Compound concentration response curves are fitted to generate IC50 values from those curves. One skilled in the art will appreciate that these values generated either as percentage inhibition at a single concentration or IC50 values are subject to experimental variation.

[1] = NAMPT inhibition at compound concentration 1 μM

hNAMPT protein, sequence (P43490 whole entry): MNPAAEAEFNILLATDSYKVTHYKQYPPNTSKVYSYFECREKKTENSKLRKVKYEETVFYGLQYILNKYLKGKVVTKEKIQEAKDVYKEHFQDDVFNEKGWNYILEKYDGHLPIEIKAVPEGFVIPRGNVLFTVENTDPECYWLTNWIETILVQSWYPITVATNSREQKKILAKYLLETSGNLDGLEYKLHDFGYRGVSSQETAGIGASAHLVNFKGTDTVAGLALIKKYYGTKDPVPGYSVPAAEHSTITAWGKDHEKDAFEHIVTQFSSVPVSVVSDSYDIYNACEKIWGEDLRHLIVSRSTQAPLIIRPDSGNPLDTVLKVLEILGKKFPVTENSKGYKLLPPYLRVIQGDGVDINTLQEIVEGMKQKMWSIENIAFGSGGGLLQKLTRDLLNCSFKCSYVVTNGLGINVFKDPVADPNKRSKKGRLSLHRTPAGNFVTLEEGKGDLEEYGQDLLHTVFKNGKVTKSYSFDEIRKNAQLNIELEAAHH

| Compound | viability at 1.667 µM (PC3 cells) | inhibition at 1 µM (hNAMPT protein; [1]) | IC50 (hNAMPT protein) | Percent Viability (PC3 cells; human, 72 h, 1.667 µM) | Percent Inhibition (hNAMPT protein; [1]) | inhibition at 1 µM (hNAMPT protein) |
| --- | --- | --- | --- | --- | --- | --- |
| CCCc1nc(-c2ccc(Cl)cc2)nc2cc(C(=O)NCC3CC3c3ncc[nH]3)ccc12 (racemic) [Compound I-59, 2-(4-chlorophenyl)-N-{[trans-(1,2)-2-(1H-imidazol-2-yl)cyclopropyl]methyl}-4-propylquinazoline-7-carboxamide] | 2% | 90% | 50 to 100 nM | – | – | – |
| CCOc1cc(-c2ccc(F)cc2)nc2cc(C(=O)NCC3CC3c3ncc[nH]3)ccc12 (single isomer, unassigned) [Compound I-50, 4-Ethoxy-2-(4-fluorophenyl)-N-{[trans-(1,2)-2-(1H-imidazol-2-yl)cyclopropyl]methyl}quinoline-7-carboxamide] | 3% | 99% | < 10 nM | – | – | – |
| CCOc1cc(-c2ccc(F)cc2)nc2cc(C(=O)NCC3CC3c3ncc[nH]3)ccc12 (single isomer, unassigned) [Compound I-51, 4-Ethoxy-2-(4-fluorophenyl)-N-{[trans-(1,2)-2-(1H-imidazol-2-yl)cyclopropyl]methyl}quinoline-7-carboxamide] | – | – | 10 to 50 nM | 4% | 98% | – |
| CC[C@@H](F)c1nc(-c2ccc(Cl)cc2)nc2cc(C(=O)NCCCc3ncc[nH]3)ccc12 (stereo in doubt) [Compound I-72, 2-(4-chlorophenyl)-4-[1-fluoropropyl]-N-[3-(1H-imidazol-2-yl)propyl]quinazoline-7-carboxamide] | 1% | 98% | < 10 nM | – | – | – |
| CCCc1nc(-c2ccc(Cl)cc2)nc2cc(C(=O)NCCc3cncn3C)ccc12 [Compound I-1, 2-(4-chlorophenyl)-N-[2-(1-methyl-1H-imidazol-5-yl)ethyl]-4-propylquinazoline-7-carboxamide] | 2% | > 99% | < 10 nM | – | – | – |
| CCOc1cc(-c2ccc(F)cc2)nc2cc(C(=O)NCCc3cncn3C)ccc12 [Compound I-2, 4-ethoxy-2-(4-fluorophenyl)-N-[2-(1-methyl-1H-imidazol-5-yl)ethyl]quinoline-7-carboxamide] | 2% | > 99% | < 10 nM | – | – | – |
| CCCc1nc(-c2ccc(Cl)cc2)nc2cc(C(=O)N[C@H]3C[C@@H](c4ncc[nH]4)C3)ccc12 [Compound I-3, 2-(4-Chlorophenyl)-N-[cis-3-(1H-imidazol-2-yl)cyclobutyl]-4-propyl-quinazoline-7-carboxamide] | 2% | 94% | 10 to 50 nM | – | – | – |
| CCCc1nc(-c2ccc(Cl)cc2)nc2cc(C(=O)NCCCc3ncc[nH]3)ccc12 [Compound I-4, 2-(4-chlorophenyl)-N-[3-(1H-imidazol-2-yl)propyl]-4-propylquinazoline-7-carboxamide] | 1% | 99% | < 10 nM | – | – | – |
| CCOc1cc(-c2ccc(F)cc2)nc2cc(C(=O)NCCCc3nnc[nH]3)ccc12 [Compound I-5, 4-ethoxy-2-(4-fluorophenyl)-N-[3-(4H-1,2,4-triazol-3-yl)propyl]quinoline-7-carboxamide] | 1% | 100% | < 10 nM | – | – | – |
| CCOc1cc(-c2ccc(F)cc2)nc2cc(C(=O)NCCc3cn(C)cn3)ccc12 [Compound I-6, 4-ethoxy-2-(4-fluorophenyl)-N-[2-(1-methyl-1H-imidazol-4-yl)ethyl]quinoline-7-carboxamide] | 1% | 94% | 50 to 100 nM | – | – | – |
| CCCc1nc(-c2ccc(Cl)cc2)nc2cc(C(=O)NCCCc3nnc[nH]3)ccc12 [Compound I-7, 2-(4-chlorophenyl)-4-propyl-N-[3-(4H-1,2,4-triazol-3-yl)propyl]quinazoline-7-carboxamide] | 1% | 97% | 10 to 50 nM | – | – | – |
| CCCc1nc(-c2ccc(Cl)cc2)nc2cc(C(=O)NCc3ccc4nccn4c3)ccc12 [Compound I-8, 2-(4-chlorophenyl)-N-(imidazo[1,2-a]pyridin-6-ylmethyl)-4-propylquinazoline-7-carboxamide] | 1% | 98% | < 10 nM | – | – | – |
| CCCc1nc(-c2ccc(Cl)cc2)nc2cc(C(=O)NCc3nc4ccncc4[nH]3)ccc12 [Compound I-9, 2-(4-chlorophenyl)-N-(3H-imidazo[4,5-c]pyridin-2-ylmethyl)-4-propylquinazoline-7-carboxamide] | 1% | 93% | < 10 nM | – | – | – |
| COc1nc(-c2ccc(Cl)cc2)nc2cc(C(=O)NCCCc3ncc[nH]3)ccc12 [Compound I-10, 2-(4-chlorophenyl)-N-[3-(1H-imidazol-2-yl)propyl]-4-methoxyquinazoline-7-carboxamide] | 1% | 100% | < 10 nM | – | – | – |
| CCOc1cc(-c2cc(Cl)ccc2F)nc2cc(C(=O)NCCCc3ncc[nH]3)ccc12 [Compound I-11, 2-(5-chloro-2-fluorophenyl)-4-ethoxy-N-[3-(1H-imidazol-2-yl)propyl]quinoline-7-carboxamide] | 1% | > 99% | < 10 nM | – | – | – |
| CCOc1cc(-c2cc(OC)ncc2F)nc2cc(C(=O)NCCCc3ncc[nH]3)ccc12 [Compound I-12, 4-ethoxy-2-(5-fluoro-2-methoxypyridin-4-yl)-N-[3-(1H-imidazol-2-yl)propyl]quinoline-7-carboxamide] | 1% | > 99% | < 10 nM | – | – | – |
| CCOc1cc(-c2ccc(Cl)cc2)nc2cc(C(=O)NCCCc3ncc[nH]3)ccc12 [Compound I-13, 2-(4-chlorophenyl)-4-ethoxy-N-[3-(1H-imidazol-2-yl)propyl]quinoline-7-carboxamide] | 0% | – | < 10 nM | – | – | > 99% |
| CCOc1cc(-c2ccc(F)cc2)nc2cc(C(=O)NCc3nc4cnccc4[nH]3)ccc12 [Compound I-14, 4-ethoxy-2-(4-fluorophenyl)-N-(1H-imidazo[4,5-c]pyridin-2-ylmethyl)quinoline-7-carboxamide] | 1% | > 99% | < 10 nM | – | – | – |
| CCOc1cc(-c2ccc(F)cc2)nc2cc(C(=O)NCCCc3ncc[nH]3)ccc12 [Compound I-15, 4-ethoxy-2-(4-fluorophenyl)-N-[3-(1H-imidazol-2-yl)propyl]quinoline-7-carboxamide] | 2% | > 99% | < 10 nM | – | – | – |

Source: patent publication US10323018B2 (Millennium Pharmaceuticals, Inc., priority 2015, dated 2019)
